In US20100022491A1, “4-HYDROXY-2-OXO-2,3-DIHYDRO-1,3-BENZOTHIAZOL-7YL COMPOUNDS FOR MODULATION OF B2-ADRENORECEPTOR ACTIVITY” (ASTRAZENECA AB, priority 2006, published 2010):
Where a name gives a salt, the structure may show the parent alone.

What was measured:
[1] = biological target: T1, recombinant human adrenergic beta 1 receptors (Homo sapiens, UniProt P08588); assay: Adrenergic β1 selectivity binding assay ([125I]-Iodocyanopindolol); details: inhibition of [125I]-Iodocyanopindolol (0.036 nM) binding; read-out: β1 bind p IC50 (converted)
T1 construct: purchased Euroscreen
T1 sequence (P08588 whole entry): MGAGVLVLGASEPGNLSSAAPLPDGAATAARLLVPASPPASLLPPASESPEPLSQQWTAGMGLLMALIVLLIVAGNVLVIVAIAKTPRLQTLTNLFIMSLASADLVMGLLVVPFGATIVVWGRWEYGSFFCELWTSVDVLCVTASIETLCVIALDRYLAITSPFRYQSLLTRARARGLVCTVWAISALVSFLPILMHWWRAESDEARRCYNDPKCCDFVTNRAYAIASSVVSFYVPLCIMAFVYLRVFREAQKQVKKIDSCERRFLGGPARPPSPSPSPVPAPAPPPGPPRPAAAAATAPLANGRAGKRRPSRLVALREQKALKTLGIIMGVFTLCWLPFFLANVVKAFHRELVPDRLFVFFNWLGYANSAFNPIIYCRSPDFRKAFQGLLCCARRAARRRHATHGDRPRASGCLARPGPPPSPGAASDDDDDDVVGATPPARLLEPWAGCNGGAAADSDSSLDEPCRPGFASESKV
How it was run: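 Recombinant human β1 membranes in HEPES buffer pH 7.4 with 120 mM NaCl were incubated 2 hours at room temperature with 0.036 nM [^125I]-Iodocyanopindolol. Nonspecific binding defined by 10 μM propranolol; bound radioactivity counted after filtration. pIC50 from four-parameter logistic fit.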

[2] = biological target: T2, recombinant human α1D receptor (Homo sapiens, UniProt P25100); assay: Adrenergic α1D selectivity binding assay ([3H]-prazosin); details: inhibition of [3H]-prazosin (0.3 nM) binding, HEK293 membranes; read-out: α1 bind pIC50 (converted)
T2 construct: expressed in transfected cells; host or cells: HEK293
T2 sequence (P25100 1-572): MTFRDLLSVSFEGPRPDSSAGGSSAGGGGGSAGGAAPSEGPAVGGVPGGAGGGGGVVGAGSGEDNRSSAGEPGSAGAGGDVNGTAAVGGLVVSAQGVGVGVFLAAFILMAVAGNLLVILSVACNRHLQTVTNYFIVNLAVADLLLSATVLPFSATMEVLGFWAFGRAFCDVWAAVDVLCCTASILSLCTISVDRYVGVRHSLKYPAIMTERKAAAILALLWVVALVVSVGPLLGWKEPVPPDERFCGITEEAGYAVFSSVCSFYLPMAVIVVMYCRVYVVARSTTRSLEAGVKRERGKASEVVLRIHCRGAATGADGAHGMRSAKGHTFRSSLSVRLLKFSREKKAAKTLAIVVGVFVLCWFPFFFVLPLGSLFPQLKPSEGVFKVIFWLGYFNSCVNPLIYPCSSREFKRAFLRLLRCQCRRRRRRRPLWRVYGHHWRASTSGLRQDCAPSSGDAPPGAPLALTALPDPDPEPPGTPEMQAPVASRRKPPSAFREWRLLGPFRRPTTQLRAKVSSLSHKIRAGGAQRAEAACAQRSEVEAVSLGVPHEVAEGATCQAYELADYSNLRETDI
How it was run: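 HEK293 membranes with recombinant human α1D receptor incubated 2 h at room temperature with 0.3 nM [3H]-prazosin and compound in 50 mM HEPES, 1 mM EDTA, 0.1% gelatin, pH 7.4; BMY7378 (10 μM) defined non-specific binding. Filter-bound radioactivity counted; pIC50 from four-parameter logistic fit.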

| SMILES | IC50 [1] | IC50 [2] |
| --- | --- | --- |
| O=C(CCNCCc1ccc(O)c2[nH]c(=O)sc12)N(CCNCCc1ccc(O)c2[nH]c(=O)sc12)C1CCCCCC1 [Example 87, bis-trifluoroacetic acid salt] | 0.794 µM | 0.251 µM |
| O=C(CCNCCc1ccccc1)N(CCNCCc1ccc(O)c2[nH]c(=O)sc12)C1CCCCC1 [Example 5, N-Cyclohexyl-N-(2-{[2-(4-hydroxy-2-oxo-2,3-dihydro-1,3-benzothiazol-7-yl)ethyl]amino}ethyl)-N^3-(2-phenylethyl)-β-alaninamide bis-trifluoroacetic acid salt] | 5.01 µM | 0.1 µM |
| O=C(CCNCCc1ccccc1)N(CCNCCc1ccc(O)c2[nH]c(=O)sc12)C1CCC(F)(F)CC1 [Example 4, N-(4,4-Difluorocyclohexyl)-N-(2-{[2-(4-hydroxy-2-oxo-2,3-dihydro-1,3-benzothiazol-7-yl)ethyl]amino}ethyl)-N^3-(2-phenylethyl)-β-alaninamide bis-trifluoroacetic acid salt] | 2.51 µM | 0.2 µM |
| CC1(C)CCC(N(CCNCCc2ccc(O)c3[nH]c(=O)sc23)C(=O)CCNCCc2cccc(O)c2)CC1 [Example 91, N^1-(4,4-Dimethylcyclohexyl)-N^1-(2-{[2-(4-hydroxy-2-oxo-2,3-dihydro-1,3-benzothiazol-7-yl)ethyl]amino}ethyl)-N^3-[2-(3-hydroxyphenyl)ethyl]-β-alaninamide bis-trifluoroacetic acid salt] | 3.98 µM | 0.126 µM |
| O=C(CCNCCc1ccc2c(c1)OCCO2)N(CCNCCc1ccc(O)c2[nH]c(=O)sc12)C1CCCCCC1 [Example 88, N-Cycloheptyl-N^3-[2-(2,3-dihydro-1,4-benzodioxin-6-yl)ethyl]-N^1-(2-{[2-(4-hydroxy-2-oxo-2,3-dihydro-1,3-benzothiazol-7-yl)ethyl]amino}ethyl)-β-alaninamide bis-trifluoroacetic acid salt] | 6.31 µM | 0.251 µM |

Continued, values first:

| IC50 [1] | IC50 [2] | SMILES |
| --- | --- | --- |
| 0.2 µM | 0.0631 µM | O=C(CCNCCc1cccc(O)c1)N(CCNCCc1ccc(O)c2[nH]c(=O)sc12)C1CCCCCCC1 [Example 90, N^1-Cyclooctyl-N^1-(2-{[2-(4-hydroxy-2-oxo-2,3-dihydro-1,3-benzothiazol-7-yl)ethyl]amino}ethyl)-N^3-[2-(3-hydroxyphenyl)ethyl]-β-alaninamide bis-trifluoroacetic acid salt] |
| 2.51 µM | 0.0501 µM | Cc1cccc(CCNCCC(=O)N(CCNCCc2ccc(O)c3[nH]c(=O)sc23)C2CCCCCC2)c1 [Example 85, N^1-Cycloheptyl-N^1-(2-{[2-(4-hydroxy-2-oxo-2,3-dihydro-1,3-benzothiazol-7-yl)ethyl]amino}ethyl)-N^3-[2-(3-methylphenyl)ethyl]-β-alaninamide bis-trifluoroacetic acid salt] |
| 2.51 µM | 0.251 µM | COc1ccc(CCNCCC(=O)N(CCNCCc2ccc(O)c3[nH]c(=O)sc23)C2CCCCCC2)cc1OC [Example 86, N^1-Cycloheptyl-N^3-[2-(3,4-dimethoxyphenyl)ethyl]-N^1-(2-{[2-(4-hydroxy-2-oxo-2,3-dihydro-1,3-benzothiazol-7-yl)ethyl]amino}ethyl)-β-alaninamide bis-trifluoroacetic acid salt] |
| 3.16 µM | 0.0501 µM | O=C(CCNCCc1ccc(O)c(Cl)c1)N(CCNCCc1ccc(O)c2[nH]c(=O)sc12)C1CCCCC1 [Example 89, N^3-[2-(3-chloro-4-hydroxyphenyl)ethyl]-N^1-cyclohexyl-N^1-(2-{[2-(4-hydroxy-2-oxo-2,3-dihydro-1,3-benzothiazol-7-yl)ethyl]amino}ethyl)-β-alaninamide bis-trifluoroacetic acid salt] |
